Literature values, collected in US8652545B2, “Composition of a liquid dietary supplement to treat symptoms of autism spectrum disorders in children” (Reverta Health Solutions LLC, priority 2008, dated 2014).

Legend:
[1] = in vivo
[2] = in vivo; remark: listed apart in the source
[3] = tested on: individuals diagnosed with autism; conditions: high doses, given with magnesium; Nye and Brice (2005)

Compound | sleep [1] | stress [1] | crossing of the blood-brain barrier [2] | benefit in individuals diagnosed with autism [3]
CCNC(=O)CC[C@H](N)C(=O)O [Theanine] | promote a more restful deep sleep | reduce stress | easily crosses the blood-brain barrier | 
Cc1ncc(CO)c(CO)c1O.Cl [vitamin B6, Vitamin B6] |  |  |  | extremely beneficial
